The source of these data is patent US9440969B2, “Compounds and methods for kinase modulation, and indications therefor” (PLEXXIKON INC., priority 2009, dated 2016).

Experiment [1] concerns COLO205 colon adenocarcinoma (B-Raf V600E mutation). Description: COLO205 cell growth inhibition (ATPlite luminescence). In kind it is cell-based. As to conditions: Homo sapiens, COLO 205, 72 h, COLO205 cells, incubated 3 days with compound. Put shortly: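 Cells seeded at 6×10^4 cells/mL in line-specific medium with 10% FBS, held overnight at 37°C, then given an 8-point 1:3 compound titration (top 10 μM final) for 3 days at 37°C, 5% CO2. ATP content read by ATPlite luminescence as a cell-number proxy; IC50 fitted from luminescence versus concentration.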

Another experiment addresses CYP2C9 (Homo sapiens, UniProt P11712). The experiment can be described thus: CYP2C9 inhibition (fluorescent substrate MFC). Type of experiment: in vitro ADME. The following applies: read-out: Cyp IC50 (μM) 2C9. The protocol: CYP (Cytochrome P450) enzymes are the major drug metabolizing enzymes present in the liver. The inhibition of CYP enzyme activity (IC50) for each of CYP1A2, CYP2C19, CYP2C9, CYP2D6, CYP3A4(BFC) and CYP3A4(BQ) is determined for compounds, where inhibition of metabolism of a known substrate leads to a decrease in the fluorescence of the metabolized product. The fluorescence of the product is monitored as a function of compound concentration. Compounds are dissolved in dimethyl sulfoxide to a concentration of 100 mM. These are diluted […], into 82 μL of acetonitrile. An 11 μL aliquot of this solution is then added to 204 μL of cofactor mix (1.3% NADPH Regeneration system Solution A, 1.04% NADPH Regeneration system Solution B from BD Biosciences, 5% acetonitrile and 0.05% dimethyl sulfoxide). These are then serially diluted 1:1 (160 μL to 160 μL co-factor mix) for a total of 10 points. A 10 μL aliquot of this final mixture is dispensed into 384 well assay plates and incubated for 10 minutes at 37° C. Enzyme and substrate mix (10 μL; 0.5 pmol CYP1A2/5 μM CEC; 1.0 pmol CYP2C9/75 μM MFC; 0.5 pmol CYP2C19/25 μM CEC; 1.5 pmol CYP2D6/1.5 μM AMMC; 1.0 pmol CYP3A4/50 μM BFC; or 1.0 pmol CYP3A4/40 μM BQ) is added to these assay plates. Assay plates are incubated at 37° C. (CYP1A2-15 min; CYP2C9-45 min; CYP2C19, 2D6 and 3A4-30 min) and read in a Tecan Safire 2 plate reader (CYP1A2, 2C19 and 3A4 409 ex/460 em; CYP2C9 and 2D6 409 ex/530 em). The signal versus compound concentration is used to determine the IC50. The enzymes and substrates for this assay are obtained from BD Biosciences.

Sequence of CYP2C9 (P11712 whole entry): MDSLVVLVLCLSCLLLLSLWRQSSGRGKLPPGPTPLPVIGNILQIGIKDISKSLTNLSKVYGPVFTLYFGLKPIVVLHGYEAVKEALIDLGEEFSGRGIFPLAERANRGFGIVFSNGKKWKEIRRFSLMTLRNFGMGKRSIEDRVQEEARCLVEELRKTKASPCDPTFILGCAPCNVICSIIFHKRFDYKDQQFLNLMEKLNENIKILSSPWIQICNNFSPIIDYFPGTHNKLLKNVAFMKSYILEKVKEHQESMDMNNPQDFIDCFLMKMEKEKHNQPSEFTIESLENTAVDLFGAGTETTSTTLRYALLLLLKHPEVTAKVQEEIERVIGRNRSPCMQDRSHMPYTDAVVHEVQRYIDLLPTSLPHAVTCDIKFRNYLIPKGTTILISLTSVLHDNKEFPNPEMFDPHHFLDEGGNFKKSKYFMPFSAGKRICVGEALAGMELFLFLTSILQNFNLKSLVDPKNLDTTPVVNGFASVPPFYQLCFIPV

On to `CC(=O)n1cc(C(=O)c2c(F)ccc(NS(=O)(=O)c3cc(F)ccc3F)c2F)c2cc(-c3ccc4c(cnn4C(C)=O)c3)cnc21` [P-0004, N-{3-[1-Acetyl-5-(1-acetyl-1H-indazol-5-yl)-1H-pyrrolo[2,3-b]pyridine-3-carbonyl]-2,4-difluoro-phenyl}-2,5-difluoro-benzenesulfonamide], for which the values for the IC50 (in experiment [1]; at CYP2C9) were below 1 µM and below 5 µM, respectively. For `CCCS(=O)(=O)Nc1ccc(F)c(C(=O)c2c[nH]c3ncc(-c4ccc5[nH]ccc5c4)cc23)c1F` [P-0012, Propane-1-sulfonic acid {2,4-difluoro-3-[5-(1H-indol-5-yl)-1H-pyrrolo[2,3-b]pyridine-3-carbonyl]-phenyl}-amide], in that order: below 1 µM and 5 to 10 µM.

As to `Cc1ccc(-c2cnc3[nH]cc(C(=O)c4c(F)ccc(NS(=O)(=O)c5cc(F)ccc5F)c4F)c3c2)cn1` [P-1408, N-{2,4-Difluoro-3-[5-(6-methyl-pyridin-3-yl)-1H-pyrrolo[2,3-b]pyridine-3-carbonyl]-phenyl}-2,5-difluoro-benzenesulfonamide], the half-maximal inhibitory concentration (IC50) at CYP2C9 is 5 to 10 µM. `CCCS(=O)(=O)Nc1ccc(F)c(C(=O)c2c[nH]c3ncc(-c4ccc5c(cnn5C(C)=O)c4)cc23)c1F` [P-0007, propane-1-sulfonic acid {3-[5-(1-acetyl-1H-indazol-5-yl)-1H-pyrrolo[2,3-b]pyridine-3-carbonyl]-2,4-difluoro-phenyl}-amide]: the results for the half-inhibitory concentration (IC50) (in experiment [1]; at CYP2C9) were below 1 µM and below 5 µM, respectively.

On to `CCCS(=O)(=O)Nc1ccc(F)c(C(=O)c2c[nH]c3ncc(-c4ccc5[nH]ncc5c4)cc23)c1F` [P-0001, propane-1-sulfonic acid {2,4-difluoro-3-[5-(1H-indazol-5-yl)-1H-pyrrolo[2,3-b]pyridine-3-carbonyl]-phenyl}-amide], for which the concentration for half-maximal inhibition (IC50) in experiment [1] was below 1 µM; at CYP2C9, below 5 µM. For `CC(=O)N(c1ccc(F)c(C(=O)c2cn(C(C)=O)c3ncc(-c4ccc5c(cnn5C(C)=O)c4)cc23)c1F)S(=O)(=O)c1cc(F)ccc1F` [P-0006, N-Acetyl-N-{3-[1-acetyl-5-(1-acetyl-1H-indazol-5-yl)-1H-pyrrolo[2,3-b]pyridine-3-carbonyl]-2,4-difluoro-phenyl}-2,5-difluoro-benzenesulfonamide], in that order: below 1 µM and below 5 µM. Consider `CCCS(=O)(=O)Nc1ccc(F)c(C(=O)c2c[nH]c3ncc(-c4ccc5nn(C)cc5c4)cc23)c1F` [P-0010, Propane-1-sulfonic acid {2,4-difluoro-3-[5-(2-methyl-2H-indazol-5-yl)-1H-pyrrolo[2,3-b]pyridine-3-carbonyl]-phenyl}-amide], for which the half-maximal inhibitory concentration (IC50) was below 1 µM in experiment [1] and above 10 µM on CYP2C9. For `CCCS(=O)(=O)Nc1ccc(F)c(C(=O)c2c[nH]c3ncc(-c4cnn(C5CCNCC5)c4)cc23)c1F` [P-1002, Propane-1-sulfonic acid {2,4-difluoro-3-[5-(1-piperidin-4-yl-1H-pyrazol-4-yl)-1H-pyrrolo[2,3-b]pyridine-3-carbonyl]-phenyl}-amide], in that order: below 1 µM and above 10 µM.

In the case of `CCCS(=O)(=O)Nc1ccc(F)c(C(=O)c2c[nH]c3ncc(-c4ccc5c(cnn5S(C)(=O)=O)c4)cc23)c1F` [P-0016, propane-1-sulfonic acid {2,4-difluoro-3-[5-(1-methanesulfonyl-1H-indazol-5-yl)-1H-pyrrolo[2,3-b]pyridine-3-carbonyl]-phenyl}-amide], the IC50 in experiment [1] is below 1 µM; on CYP2C9, above 10 µM.

For `O=C(c1c(F)ccc(NS(=O)(=O)c2cc(F)ccc2F)c1F)c1c[nH]c2ncc(-c3ccc4[nH]ncc4c3)cc12` [P-0002, N-{2,4-Difluoro-3-[5-(1H-indazol-5-yl)-1H-pyrrolo[2,3-b]pyridine-3-carbonyl]-phenyl}-2,5-difluoro-benzenesulfonamide], the IC50 is below 1 µM in experiment [1] and below 5 µM on CYP2C9. For `CCCS(=O)(=O)Nc1ccc(F)c(C(=O)c2c[nH]c3ncc(-c4cccc5nn(C)cc45)cc23)c1F` [P-0015, Propane-1-sulfonic acid {2,4-difluoro-3-[5-(2-methyl-2H-indazol-4-yl)-1H-pyrrolo[2,3-b]pyridine-3-carbonyl]-phenyl}-amide], the IC50 in experiment [1] was below 1 µM; on CYP2C9, 5 to 10 µM.

In the case of `CCCS(=O)(=O)Nc1ccc(F)c(C(=O)c2c[nH]c3ncc(-c4csc(-n5ccnc5C)n4)cc23)c1F` [P-1101, Propane-1-sulfonic acid (2,4-difluoro-3-{5-[2-(2-methyl-imidazol-1-yl)-thiazol-4-yl]-1H-pyrrolo[2,3-b]pyridine-3-carbonyl}-phenyl)-amide], the IC50 in experiment [1] is below 1 µM; on CYP2C9 it was below 5 µM. On to `CNC(=O)n1ncc2cc(-c3cnc4[nH]cc(C(=O)c5c(F)ccc(NS(=O)(=O)c6cc(F)ccc6F)c5F)c4c3)ccc21` [P-0003, 5-{3-[3-(2,5-Difluoro-benzenesulfonylamino)-2,6-difluoro-benzoyl]-1H-pyrrolo[2,3-b]pyridin-5-yl}-indazole-1-carboxylic acid methylamide], for which the figures for the half-inhibitory concentration (IC50) (in experiment [1]; on CYP2C9) were below 1 µM and below 5 µM, respectively. For `CCCS(=O)(=O)Nc1ccc(F)c(C(=O)c2c[nH]c3ncc(-c4ccc5ncsc5c4)cc23)c1F` [P-0020, Propane-1-sulfonic acid [3-(5-benzothiazol-6-yl-1H-pyrrolo[2,3-b]pyridine-3-carbonyl)-2,4-difluoro-phenyl]-amide], in that order: below 1 µM and above 10 µM.

Regarding `CC(=O)n1ncc2cc(-c3cnc4[nH]cc(C(=O)c5c(F)ccc(NS(=O)(=O)c6cc(F)ccc6F)c5F)c4c3)ccc21` [P-0005, N-{3-[5-(1-Acetyl-1H-indazol-5-yl)-1H-pyrrolo[2,3-b]pyridine-3-carbonyl]-2,4-difluoro-phenyl}-2,5-difluoro-benzenesulfonamide], the IC50 was below 1 µM in experiment [1] and below 5 µM on CYP2C9. For `CCCS(=O)(=O)Nc1ccc(F)c(C(=O)c2c[nH]c3ncc(-c4ccc5[nH]cc(C)c5c4)cc23)c1F` [P-0023, Propane-1-sulfonic acid {2,4-difluoro-3-[5-(3-methyl-1H-indol-5-yl)-1H-pyrrolo[2,3-b]pyridine-3-carbonyl]-phenyl}-amide], in that order: below 1 µM and above 10 µM. Take `CCCS(=O)(=O)Nc1ccc(F)c(C(=O)c2c[nH]c3ncc(-c4ccc5cncnc5c4)cc23)c1F` [P-0025, Propane-1-sulfonic acid [2,4-difluoro-3-(5-quinazolin-7-yl-1H-pyrrolo[2,3-b]pyridine-3-carbonyl)-phenyl]-amide]: the values for the IC50 (in experiment [1]; at CYP2C9) were below 1 µM and 5 to 10 µM, respectively. Regarding `Cc1ncc(-c2cnc3[nH]cc(C(=O)c4c(F)ccc(NS(=O)(=O)c5cc(F)ccc5F)c4F)c3c2)cn1` [P-1503, N-{2,4-Difluoro-3-[5-(2-methyl-pyrimidin-5-yl)-1H-pyrrolo[2,3-b]pyridine-3-carbonyl]-phenyl}-2,5-difluoro-benzenesulfonamide], the IC50 at CYP2C9 was above 10 µM.

Consider `CCCS(=O)(=O)Nc1ccc(F)c(C(=O)c2c[nH]c3ncc(-c4ccc5cn(C)nc5c4)cc23)c1F` [P-0011, Propane-1-sulfonic acid {2,4-difluoro-3-[5-(2-methyl-2H-indazol-6-yl)-1H-pyrrolo[2,3-b]pyridine-3-carbonyl]-phenyl}-amide], for which the IC50 is below 1 µM in experiment [1] and 5 to 10 µM at CYP2C9.

Take `O=C(c1c(F)ccc(NS(=O)(=O)c2ccc(C(F)(F)F)cc2)c1F)c1c[nH]c2ncc(-c3cnn(C4CCNCC4)c3)cc12` [P-1004, N-{2,4-Difluoro-3-[5-(1-piperidin-4-yl-1H-pyrazol-4-yl)-1H-pyrrolo[2,3-b]pyridine-3-carbonyl]-phenyl}-4-trifluoromethyl-benzenesulfonamide]: the IC50 in experiment [1] was above 1 µM; at CYP2C9 it was above 10 µM.

By IC50 is commonly meant the concentration that gives 50% inhibition.
